Results from PubChem BioAssay (NCI).
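Method: 48-hour compound exposure of cells in 96-well plates, five concentrations, linear interpolation of endpoints. Here, GI50 denotes the concentration required for 50% inhibition of growth. Definition used: TGI = concentration required for complete inhibition of growth.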

Assays:
Experiment in all cases: NCI tumour cell line growth inhibition, 48 h
[1] = system: EKVX NSCLC
[2] = system: KM20L2 colon
[3] = system: LXFL 529 NSCLC
[4] = system: M14 melanoma
[5] = system: NCI-H23 lung
[6] = system: RXF 393 renal
[7] = system: SF-268 CNS
[8] = system: SN12C renal
[9] = system: SNB-78 CNS
[10] = system: SR leukemia
[11] = system: MDA-MB-435

Structure (SMILES) | TGI [1] [µM] | TGI [2] [µM] | TGI [3] [µM] | TGI [4] [µM] | TGI [5] [µM] | TGI [6] [µM] | TGI [7] [µM] | TGI [8] [µM] | TGI [9] [µM] | TGI [10] [µM] | GI50 [4] [µM] | GI50 [11] [µM] | GI50 [5] [µM] | GI50 [7] [µM] | GI50 [8] [µM] | GI50 [10] [µM]
C=CCNC(=S)OCCCCCCCCCC | 39.6 | 33.2 | 28.5 | 32.7 | 37.8 | 29.1 | 33.6 | 31.7 | 36.7 | 78.3 |  |  |  |  |  | 
COC1(OC)c2ccccc2C2(O)c3ccccc3C(=O)C12 (stereo unspecified) | > 100 | > 100 | > 100 | > 100 | > 100 | > 100 | > 100 | > 100 | > 100 | > 100 |  |  |  |  |  | 
O=C(/C=C/c1ccc(Cl)cc1)c1ccncc1 | > 100 | > 100 | > 100 | > 100 | > 100 | 88.8 | > 100 | > 100 | > 100 | > 100 |  |  |  |  |  | 
O=C(O/N=C1/CCCC/C1=C\c1ccccc1)c1ccc(Cl)cc1 | > 100 | > 100 | > 100 | > 100 | > 100 | > 100 | > 100 | > 100 | > 100 | > 100 |  |  |  |  |  | 
O=c1c2cccnc2ncn1CCCN1CCOCC1 | > 100 | > 100 | > 100 | > 100 | > 100 | > 100 | > 100 | > 100 | > 100 | > 100 |  |  |  |  |  | 
CC(C)c1ccc(O)c(=O)cc1 | > 100 | > 100 | > 100 | 40.6 | > 74 | > 86.2 | > 62.1 | > 100 | > 91.1 | > 100 | 16.3 | 19.6 | 17.2 | 7.43 | 5.85 | 4.18
CC1=C(c2cc(C(=O)Nc3cccc(C(F)(F)F)c3)nc(NC#N)n2)Sc2ccccc2N1 | > 100 | > 100 | > 100 | > 100 | > 100 | > 100 | > 100 | > 100 | > 100 | > 100 |  |  |  |  |  | 
CCc1cccc(C(C)CC)c1NC(=O)CC1C(=O)Nc2ccccc2S1=O (stereo unspecified) | > 100 | > 100 | > 100 | 55.8 | > 100 | 46.1 | > 100 | > 100 | 92.9 | 73.6 |  |  |  |  |  | 
